Assay: In vitro skin permeation study, Franz diffusion cell, with or without ultrasound (sonophoresis)
Format: in vitro ADME, human
Settings: for UT60°/Non-UTGel 1 (permeation enhancement factor): Study 2, Gel 1 with 60° sonophoresis vs Gel 1 passive; for UT15°/Non-UTGel 1 (permeation enhancement factor) / UT90°/Non-UTGel 1 (permeation enhancement factor): Study 3; for UT15°/Non-UTGel 1 (permeation enhancement factor): Gel 1 with 15° sonophoresis vs Gel 1 passive; for UT90°/Non-UTGel 1 (permeation enhancement factor): Gel 1 with 90° sonophoresis vs Gel 1 passive
Excerpt: The experimental setup to run sonophoresis (ultrasound) studies with Franz cell diffusion cells consisted of a custom-built universal generator capable of driving ultrasonic transducers in the 20 kHz-2 MHz range with electronic power up to 60 W (Voltage+/−30V, Current: 2A, duty cycle 50%) with a square waveform. The real power delivered to the transducer depended on the specific experimental conditions and is specified for each experiment. The driving waveform was delivered to the transducer through a coaxial cable having a BNC connector at one end and a custom non-coaxial connector at the transducer end.
The tranducer was piezoelectric and had either a disk shaped form (either 20 or 25 mm in diameter) or a rectangular shape 10×20 mm^2). The thickness of the transducer depended on its fundamantal frequency being inversely proportional with it. In order to prevent the liquid or the gel from perturbing the electrical connection, each transducer was encapsulated in a plastic case leaving only one side of the transducer exposed to the topical composition. The case was made out of a rigid plastic and the transducers were sealed with silicone adhesive to enable them to oscilalte more or less freely. The case also enabled the electrical connections to be isolated from the topical composition.
For sonophoresis experiments where the ultrasonic wave energy was delivered perpendicular to the skin, disk-shaped transducers were used in the encapsulation setup described above. For the angled ultrasound application the case encapsulating the ultrasonic transducer was assembled in a hinged configuration, enabling angles between 15 and 90 degrees (perpendicular). Note: an angle of 0 degrees would send the ultrasonic wave parallel with the skin surface.
In vitro skin permeation studies on 5% Ibuprofen gel compositions without ultrasound (passive diffusion), or facilitated by the application of ultrasound (sonophoresis), through human cadaver skin were performed as follows:
A skin penetration study evaluated the penetration of ibuprofen through the human skin for the inventive sample prepared as disclosed in Example 1. A commercial ibuprofen gel product, IBULEVE Ibuprofen Gel (by DDD ltd, Watford, Herts, WD18 7JJ, UK) was used as a benchmark, which contains 5% W/W ibuprofen, also IMS (Industrial Methylated Spirits), carbomer, propylene glycol, diethylamine and purified water according to the product label on its package. A well-known Franz diffusion cell method (taught in US20020006418 A1 which is hereby incorporated by reference) was used. […] A magnetic stirrer bar was added in the […]. The liquid receptor was filled with Phosphate-buffered saline (PBS) solution. Air bubbles in the […] were removed. The system was thermostated at 37° C. above a magnetic stirrer to ensure the homogeneity of the liquid receptor during the experiment. A human cadaver skin sample from a commercial tissue bank (Ohio Valley Tissue and Skin Center, Cincinnati, Ohio, dermatomed to approximately 0.4 mm) was cut to fit the glass diffusion cell and the skin was mounted on the Franz cell.
For the diffusion cells designated to be tested for passive diffusion, a test gel sample of 0.2 ml was applied on the skin surface. For the diffusion cells designated to test for sonophoresis, additional test sample (2-5 ml) was added in order to assure the entire, or at least a large portion, of the ultrasonic transducer tip was immersed by the test gel during the ultrasound treatment. The excess gel was promptly removed from the donor cell after the ultrasound treatment so that the remaining test gel was approximately 0.2 ml.
Ultrasound treatments were carried out with the following test conditions: • a) Conventional ultrasound treatment with 90 degree angle (°) between the ultrasound direction and the skin surface; • b) Angled Ultrasound treatment with less than 90 degree angle between the ultrasound direction and the skin surface. […]

CC(C)Cc1ccc(C(C)C(=O)O)cc1 (stereo not drawn) [ibuprofen]
UT60°/Non-UTGel 1 (permeation enhancement factor) (6 hr): approximately 2.9 fold | UT60°/Non-UTGel 1 (permeation enhancement factor) (24 hr): ~2.0 fold | UT15°/Non-UTGel 1 (permeation enhancement factor) (6 hr): approximately 3.0 fold | UT15°/Non-UTGel 1 (permeation enhancement factor) (24 hr): approximately 3.0 fold | UT90°/Non-UTGel 1 (permeation enhancement factor) (6 hr): approximately 2.3 fold | UT90°/Non-UTGel 1 (permeation enhancement factor) (24 hr): ~2.0 fold
